# Where two headings read alike, the source gives them in different places.
# Columns and labels:
# CARM1 = details: read-out: IC50 against CARM1; cited from earlier work
# other methyltransferases = tested on: other methyltransferases; set-up: method as in PMID 29719619; details: cited from earlier work
# CARM1_135–479 = molecular target: T1, CARM1_135–479 (Homo sapiens, UniProt Q86X55); test: Radiometric methylation assay, CARM1 with H3(3–31) and [methyl-3H]-SAM; type: biochemical; details: 320 nM CARM1, 120 µM H3(3–31), 0.23 µM [3H]-SAM; read-out: IC50 (95% confidence interval), CARM1
# T1 construct: human CARM1, residues 135 to 479; MBP (N, cleaved yes); linker and TEV site […]; (N, cleaved yes); made in house; host or cells: E. coli BL21-CodonPlus (DE3)-RIL
# T1 sequence (Q86X55 135-479): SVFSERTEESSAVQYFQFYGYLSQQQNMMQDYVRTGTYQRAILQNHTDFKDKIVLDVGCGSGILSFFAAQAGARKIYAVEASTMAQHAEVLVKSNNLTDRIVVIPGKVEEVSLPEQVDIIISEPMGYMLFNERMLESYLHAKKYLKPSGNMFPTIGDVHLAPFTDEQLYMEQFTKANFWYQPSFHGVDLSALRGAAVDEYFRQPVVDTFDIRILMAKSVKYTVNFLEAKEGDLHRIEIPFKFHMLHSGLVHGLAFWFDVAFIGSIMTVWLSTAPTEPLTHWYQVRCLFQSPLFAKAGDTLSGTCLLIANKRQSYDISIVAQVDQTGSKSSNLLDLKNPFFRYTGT
# Protocol: (§1) The reactions were initiated by addition of adenosyl-L-methionine, S-[methyl-^3H] and incubated at 30°C after mixing. After 60 min, optimised for signal to noise ratio in the linear region, each reaction mixture was transferred by pipette onto a P81 phosphocellulose paper square (PerkinElmer) and immediately immersed in a stirred solution of trichloroacetic acid (10% w/v). The phosphocellulose squares were washed for 3 × 10 min, replacing the 10% trichloroacetic acid after each wash. […] Incorporation of tritium into the histone substrate was determined by liquid scintillation counting. For each inhibition series, a no-substrate control reaction was included, which contained water in place of the histone substrate. […] These control samples were also run in duplicate.
# (§2) Data were analysed in GraphPad Prism 7 and fit using non-linear regression using the ‘log(inhibitor) vs. response — variable slope (four parameters)’ function with no constraints.
# [1] = molecular target: T2, human CARM1 (CARM1_135–479) (Homo sapiens, UniProt Q86X55); test: Isothermal titration calorimetry (ITC) with CARM1 catalytic domain; type: binding; details: ITC; for -T∆S, CARM1: calculated indirectly; for ∆G, CARM1: calculated indirectly from best-fit Kd and ∆H
# T2 sequence (Q86X55 135-479): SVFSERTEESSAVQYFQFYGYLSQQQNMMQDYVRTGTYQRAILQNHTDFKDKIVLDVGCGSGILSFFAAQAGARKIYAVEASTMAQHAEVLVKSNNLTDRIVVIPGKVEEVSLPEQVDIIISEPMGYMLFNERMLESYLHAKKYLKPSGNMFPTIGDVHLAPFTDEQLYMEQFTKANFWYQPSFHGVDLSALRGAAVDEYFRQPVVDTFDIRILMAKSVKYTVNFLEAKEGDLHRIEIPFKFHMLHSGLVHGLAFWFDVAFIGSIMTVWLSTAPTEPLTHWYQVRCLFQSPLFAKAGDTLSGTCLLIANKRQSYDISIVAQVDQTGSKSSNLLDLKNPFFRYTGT
# Protocol: After 20 h, cells were harvested by centrifugation, resuspended in 50 mM Tris, 300 mM NaCl, 20 mM imidazole, 5% v/v glycerol at a pH of 7.5 (buffer A), lysed by sonication, and the lysate clarified by centrifugation. […] The protein was concentrated to ∼1 mg/ml and cleaved with TEV protease to remove the MBP tag. The cleaved protein was then separated from TEV protease and the MBP tag by gel filtration (HiLoad Superdex S200 16/60 PG, GE Healthcare), fractions containing the protein concentrated and 1 mg/ml aliquots either used directly or flash frozen and stored at −80°C until further use. Approximately 0.2 mg CARM1 catalytic domain was obtained per litre of bacterial culture.
# (§3) Data analysis was carried out using MicroCal PEAQ-ITC Analysis Software. […] The control heats of dilution were subtracted from binding experiments prior to curve fitting using a one-site binding model with fitted offset. […] Protein concentrations were determined by UV absorbance at 280 nm (with a NanoDrop 1000 v3.7) using extinction coefficients at 280 nm determined by the ExPASy ProtParam online tool. […] Inhibitor concentrations were determined as for activity assays.
# CARM1 N161E = molecular target: T3, CARM1 N161E (Homo sapiens, UniProt Q86X55, N161E); test: ITC with CARM1 N161E mutant
# T3 sequence (Q86X55 135-479 N161E): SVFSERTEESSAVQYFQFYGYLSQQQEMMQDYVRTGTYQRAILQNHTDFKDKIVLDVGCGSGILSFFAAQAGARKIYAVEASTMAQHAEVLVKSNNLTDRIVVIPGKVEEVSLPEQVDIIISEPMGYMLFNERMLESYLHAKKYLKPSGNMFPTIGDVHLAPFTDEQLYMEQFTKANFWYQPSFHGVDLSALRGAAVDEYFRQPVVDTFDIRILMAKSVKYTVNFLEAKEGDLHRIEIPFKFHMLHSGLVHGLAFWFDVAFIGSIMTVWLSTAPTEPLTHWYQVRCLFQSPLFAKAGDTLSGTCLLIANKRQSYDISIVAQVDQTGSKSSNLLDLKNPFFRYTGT
# Protocol: as §3
# [2] = molecular target: human PRMT1 (PRMT1_22–361) (Homo sapiens, UniProt Q99873); test: Isothermal titration calorimetry (ITC) with PRMT1; type: binding; details: for -T∆S, PRMT1: calculated indirectly
# Protocol: as §3
# PRMT1_22–361 = PRMT1_22–361 (Homo sapiens, UniProt Q99873); test: Radiometric methylation assay, PRMT1 with H4(1–21) and [methyl-3H]-SAM; type: biochemical; details: 160 nM PRMT1, 40 µM H4(1–21), 0.23 µM [3H]-SAM, 30°C, 60 min; read-out: IC50 (95% confidence interval), PRMT1
# Protocol: as §1, §2
# CARM1 N265Y = molecular target: T4, CARM1 N265Y (Homo sapiens, UniProt Q86X55, N265Y); test: ITC with CARM1 N265Y mutant; details: ITC
# T4 sequence (Q86X55 135-479 N265Y): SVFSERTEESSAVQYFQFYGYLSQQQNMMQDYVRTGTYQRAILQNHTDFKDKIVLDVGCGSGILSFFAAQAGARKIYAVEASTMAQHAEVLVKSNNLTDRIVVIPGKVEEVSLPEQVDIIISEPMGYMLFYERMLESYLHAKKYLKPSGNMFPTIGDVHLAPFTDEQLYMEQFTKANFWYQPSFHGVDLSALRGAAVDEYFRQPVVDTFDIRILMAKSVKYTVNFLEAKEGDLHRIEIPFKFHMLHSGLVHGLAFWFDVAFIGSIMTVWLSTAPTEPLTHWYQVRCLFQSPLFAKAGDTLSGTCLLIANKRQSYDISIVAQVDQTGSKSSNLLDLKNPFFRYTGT
# Protocol: as §3
# [3] = 25°C, read-out: Kd ± standard error, CARM1
# Sequence of human PRMT1 (PRMT1_22–361) (Q99873 32-371): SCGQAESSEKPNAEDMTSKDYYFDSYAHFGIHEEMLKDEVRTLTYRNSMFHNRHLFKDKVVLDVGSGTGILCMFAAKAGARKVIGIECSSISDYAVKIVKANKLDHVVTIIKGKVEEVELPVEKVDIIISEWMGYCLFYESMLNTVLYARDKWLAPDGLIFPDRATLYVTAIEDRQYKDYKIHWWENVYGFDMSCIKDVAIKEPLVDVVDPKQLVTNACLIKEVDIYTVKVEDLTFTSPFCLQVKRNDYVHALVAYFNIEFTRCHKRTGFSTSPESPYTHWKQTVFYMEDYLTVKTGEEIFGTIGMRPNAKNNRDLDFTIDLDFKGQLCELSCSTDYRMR
# Sequence of PRMT1_22–361 (Q99873 32-371): as above
SMILES,IC50 (CARM1_135–479) [µM],"N (stoichiometry) ± standard error from curve fitting, CARM1 [1]","∆H ± standard error from curve fitting, CARM1 [1] [kJ/mol]","Kd [1, 3] [µM]","-T∆S, CARM1 [1] [kJ/mol]","∆G, CARM1 [1] [kJ/mol]","N (stoichiometry) ± standard error from curve fitting, PRMT1 [2]","∆H ± standard error from curve fitting, PRMT1 ([2]; 10: competition experiment) [kJ/mol]","-T∆S, PRMT1 ([2]; 10: competition experiment) [kJ/mol]",further results
N=C(N)NCCCCCN(CC[C@H](N)C(=O)O)C[C@H]1O[C@@H](n2cnc3c(N)ncnc32)[C@H](O)[C@@H]1O [Inhibitor 7],24.1,0.648 ± 0.032,-77.7 ± 9.65,38.1 ± 9.61,52.5,-25.2,,,,"Kd ([1]; Table 2, wild-type, read-out: Kd ± standard error from curve fitting, CARM1 WT): 38.1 ± 9.61 µM; Kd (CARM1 N161E): 8.18 ± 0.482 µM"
N=C(N)NCCCN(CCCN)C[C@H]1O[C@@H](n2cnc3c(N)ncnc32)[C@H](O)[C@@H]1O [Inhibitor 4],2.3,0.481 ± 0.0062,-103 ± 2.65,3.32 ± 0.335,71.9,-31.3,0.519 ± 0.0082,-67 ± 3.22,38.5,"Kd ([2]; 25°C, direct titration, 7: stoichiometry fixed to 0.5, read-out: Kd ± standard error, PRMT1): 10.2 ± 0.996 µM; ∆G, PRMT1 ([2]; calculated indirectly from best-fit Kd and ∆H, 10: competition experiment): -28.5 kJ/mol; IC50 (PRMT1_22–361): 7.2 µM"
"Nc1ncnc2c1ncn2[C@@H]1O[C@H](CSCC[C@H](N)C(=O)O)[C@@H](O)[C@H]1O [SAH, S-Adenosylhomocysteine, reference compound]",,0.549 ± 0.0086,-147 ± 4.62,,113,,0.485 ± 0.0037,-97.7 ± 1.4,62.6,"N ± standard error, CARM1 N265Y (CARM1 N265Y): 0.737 ± 0.004; ∆H ± standard error, CARM1 N265Y (CARM1 N265Y): -99.1 ± 1.05 kJ/mol; -T∆S, CARM1 N265Y (CARM1 N265Y; calculated indirectly): 65.9 kJ/mol; ∆G, CARM1 N265Y (CARM1 N265Y; calculated indirectly): -33.3 kJ/mol; N ± standard error, CARM1 N161E (CARM1 N161E; ITC): 0.692 ± 0.0047; ∆H ± standard error, CARM1 N161E (CARM1 N161E; ITC): -125 ± 1.84 kJ/mol; -T∆S, CARM1 N161E (CARM1 N161E; ITC, calculated indirectly): 86.1 kJ/mol; ∆G, CARM1 N161E (CARM1 N161E; ITC, calculated indirectly): -39.3 kJ/mol"
